Measured values from patent publication US10414763B2 (CANCER RESEARCH TECHNOLOGY LIMITED, priority 2014, dated 2019).
pIC50: −log10 of the molar value.

The compounds below were run against T1, full-length human PKCι (Homo sapiens, UniProt P41743) (assay: PKCι IC50 IMAP fluorescence polarisation assay, full-length enzyme, 150 μM ATP). Conditions: read-out: IC50 in IMAP assay against full length PKCi at 150 μM ATP.
T1 construct: Recombinant, full-length human PKCι expressed in Sf21 insect cells is also commercially available; purchased EMD Millipore; host or cells: Sf21 insect cells (baculovirus)
T1 sequence (P41743 1-596): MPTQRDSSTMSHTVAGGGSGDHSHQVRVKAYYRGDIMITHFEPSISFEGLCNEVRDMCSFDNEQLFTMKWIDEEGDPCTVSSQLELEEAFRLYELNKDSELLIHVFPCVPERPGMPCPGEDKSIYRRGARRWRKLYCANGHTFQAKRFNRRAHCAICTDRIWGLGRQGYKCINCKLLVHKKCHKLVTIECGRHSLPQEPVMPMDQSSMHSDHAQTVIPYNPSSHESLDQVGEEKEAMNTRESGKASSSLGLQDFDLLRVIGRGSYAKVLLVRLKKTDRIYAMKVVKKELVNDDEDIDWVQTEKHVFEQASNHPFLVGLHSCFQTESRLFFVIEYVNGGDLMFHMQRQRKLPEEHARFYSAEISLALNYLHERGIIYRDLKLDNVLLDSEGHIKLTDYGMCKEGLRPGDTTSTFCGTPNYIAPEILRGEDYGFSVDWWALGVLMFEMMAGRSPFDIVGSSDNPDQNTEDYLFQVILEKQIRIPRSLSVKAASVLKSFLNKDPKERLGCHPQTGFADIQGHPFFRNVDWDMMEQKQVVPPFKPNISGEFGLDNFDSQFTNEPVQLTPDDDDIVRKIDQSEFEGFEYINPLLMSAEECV
Assay type: biochemical
Summary of the method: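 IMAP fluorescence polarisation kinase assay: 15 pM baculovirus-expressed human PKCiota with 100 nM FAM-pseudosubstrate peptide and 150 μM ATP, 1 h at 25 °C. IMAP detection reagent then 2 h at 25 °C before FP measurement. Inhibition referenced to no-compound and no-enzyme controls for IC50 fitting.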

Row | Compound | pIC50
1 | CC1CNCCC1Nc1nc(-c2ccnc(Nc3nc(F)ccc3F)c2)nc2cncc(C3CCC3)c12 (stereo not shown) [Example 127, {5-Cyclobutyl-2-[2-(3,6-difluoro-pyridin-2-ylamino)-pyridin-4-yl]-pyrido[3,4-d]pyrimidin-4-yl}-(3-methyl-piperidin-4-yl)-amine] | > 7.00
2 | Cc1cc2c(-c3nc(N4CC[C@H]5NCC[C@H]54)c4c(C5CCC5)cncc4n3)ccnc2[nH]1 (racemic) [Example 84, (±)-5-Cyclobutyl-4-(3,6-cis)-hexahydro-pyrrolo[3,2-b]pyrrol-1-yl-2-(2-methyl-1H-pyrrolo[2,3-b]pyridin-4-yl)-pyrido[3,4-d]pyrimidine] | > 7.00
3 | FC(F)(F)c1cc2c(-c3nc(N4CC[C@H]5NCCC[C@H]54)c4c(C5CC5)cncc4n3)ccnc2[nH]1 (racemic) [Example 63, (±)-5-Cyclopropyl-4-(3,7-cis)-octahydro-pyrrolo[3,2-b]pyridin-1-yl-2-(2-trifluoromethyl-1H-pyrrolo[2,3-b]pyridin-4-yl)-pyrido[3,4-d]pyrimidine] | > 7.00
4 | CN(c1nc(-c2ccnc3[nH]c4ccccc4c23)nc2cncc(C3CCC3)c12)C1CCNCC1(C)C (stereo not shown) [Example 31, [5-Cyclobutyl-2-(9H-pyrido[2,3-b]indol-4-yl)-pyrido[3,4-d]pyrimidin-4-yl]-(3,3-dimethyl-piperidin-4-yl)-methyl-amine] | > 7.00
5 | O=S(=O)(Nc1cc(-c2nc(N3CCNCC3)c3c(C4CC4)cncc3n2)ccn1)c1ccc(F)cc1 [Example 65, N-[4-(5-Cyclopropyl-4-piperazin-1-yl-pyrido[3,4-d]pyrimidin-2-yl)-pyridin-2-yl]-4-fluoro-benzenesulfonamide] | 6.00 to 7.00
6 | O[C@]12CCN(c3nc(-c4ccnc5[nH]c6ccccc6c45)nc4cncc(C5CCC5)c34)[C@H]1CCNC2 (racemic) [Example 76, (±)-(3aS,7aS)-1-[5-Cyclobutyl-2-(9H-pyrido[2,3-b]indol-4-yl)-pyrido[3,4-d]pyrimidin-4-yl]-octahydro-pyrrolo[3,2-c]pyridin-3a-ol] | > 7.00
7 | CC1(C)CNCCC1Nc1nc(-c2ccnc(Nc3cc(F)ccn3)c2)nc2cncc(C3CC3)c12 (stereo not shown) [Example 50, {5-Cyclopropyl-2-[2-(4-fluoro-pyridin-2-ylamino)-pyridin-4-yl]-pyrido[3,4-d]pyrimidin-4-yl}-(3,3-dimethyl-piperidin-4-yl)-amine] | > 7.00
8 | Clc1ccc(Cl)c(-c2cc3c(-c4nc(N5CCC6NCCC65)c5c(C6CC6)cncc5n4)ccnc3[nH]2)c1 (stereo not shown) [Example 103, 5-Cyclopropyl-2-[2-(2,5-dichloro-phenyl)-1H-pyrrolo[2,3-b]pyridin-4-yl]-4-(hexahydro-pyrrolo[3,2-b]pyrrol-1-yl)-pyrido[3,4-d]pyrimidine] | > 7.00
9 | Fc1cc(F)c(Nc2cc(-c3nc(N4CCC5NCCCC54)c4c(C5CCC5)cncc4n3)ccn2)nc1F (stereo not shown) [Example 123, {4-[5-Cyclobutyl-4-(octahydro-pyrrolo[3,2-b]pyridin-1-yl)-pyrido[3,4-d]pyrimidin-2-yl]-pyridin-2-yl}-(3,5,6-trifluoro-pyridin-2-yl)-amine] | > 7.00
10 | Cc1cc2c(-c3nc(N4CCCC5NCCCC54)c4c(C5CCC5)cncc4n3)ccnc2[nH]1 (stereo not shown) [Example 95, 5-Cyclobutyl-2-(2-methyl-1H-pyrrolo[2,3-b]pyridin-4-yl)-4-(octahydro-[1,5]naphthyridin-1-yl)-pyrido[3,4-d]pyrimidine] | > 7.00
11 | Clc1ccccc1-c1cc2c(-c3nc(N[C@H]4[C@@H]5CC[C@H]4CNC5)c4c(C5CC5)cncc4n3)ccnc2[nH]1 [Example 25, (1R,5S,8R)-3-Aza-bicyclo[3.2.1]oct-8-yl-{2-[2-(2-chloro-phenyl)-1H-pyrrolo[2,3-b]pyridin-4-yl]-5-cyclopropyl-pyrido[3,4-d]pyrimidin-4-yl}-amine] | 6.00 to 7.00
12 | Fc1cc(F)c(Nc2cc(-c3nc(NC45CCNCC4C5)c4c(C5CCC5)cncc4n3)ccn2)nc1F (stereo not shown) [Example 208, (3-Aza-bicyclo[4.1.0]hept-6-yl)-{5-cyclobutyl-2-[2-(3,5,6-trifluoro-pyridin-2-ylamino)-pyridin-4-yl]-pyrido[3,4-d]pyrimidin-4-yl}-amine] | > 7.00
13 | FC(F)(F)c1cc2c(-c3nc(N4CCC[C@H]5CNC[C@H]54)c4c(C5CC5)cncc4n3)ccnc2[nH]1 (racemic) [Example 8, (±)-5-Cyclopropyl-4-(4,7-cis)-octahydro-pyrrolo[3,4-b]pvridin-1-yl-2-(2-trifluoromethyl-1H-pyrrolo[2,3-b]pyridin-4-yl)-pyrido[3,4-d]pyrimidine] | > 7.00
14 | CN(c1nc(-c2ccnc(Nc3nc(F)c(F)cc3F)c2)nc2cncc(C3CCC3)c12)C1CCNCC1(C)C (stereo not shown) [Example 106, {5-Cyclobutyl-2-[2-(3,5,6-trifluoro-pyridin-2-ylamino)-pyridin-4-yl]-pyrido[3,4-d]pyrimidin-4-yl}-(3,3-dimethyl-piperidin-4-yl)-methyl-amine] | > 7.00
15 | CSc1cc2c(-c3nc(N4CCNCC4)c4c(C5CCC5)cncc4n3)ccnc2[nH]1 [Example 17, 5-Cyclobutyl-2-(2-methylsulfanyl-1H-pyrrolo[2,3-b]pyridin-4-yl)-4-piperazin-1-yl pyrido[3,4-d] pyrimidine] | > 7.00
16 | FC(F)(F)c1cncc2nc(-c3ccnc4[nH]c5ccccc5c34)nc(N3CC[C@@H]4CNC[C@@H]43)c12 [Example 216, 4-((3R,6R)-4-Hexahydro-pyrrolo[3,4-b]pyrrol-1-yl-5-trifluoromethyl-pyrido[3,4-d]pyrimidin-2-yl)-9H-pyrido[2,3-b]indole] | 6.00 to 7.00

The remaining lines, values ahead:

Row | pIC50 | Compound
17 | > 7.00 | CC1(C)CNCC[C@@H]1Nc1nc(-c2ccnc(Nc3ncc(F)cc3F)c2)nc2cncc(C3CC3)c12 [Example 391, {5-Cyclopropyl-2-[2-(3,5-difluoro-pyridin-2-ylamino)-pyridin-4-yl]-pyrido[3,4-d]pyrimidin-4-yl}-((S)-3,3-dimethyl-piperidin-4-yl)-amine]
18 | > 7.00 | CC1(C)CNCC[C@@H]1Nc1nc(-c2ccnc(Nc3nc4ccc(F)cc4o3)c2)nc2cncc(C3CC3)c12 [Example 332, N-[4-[5-Cyclopropyl-4-[[(4S)-3,3-dimethyl-4-piperidyl]amino]pyrido [3,4-d]pyrirnidin-2-yl]-2-pyridyl]-6-fluoro-1,3-benzoxazol-2-amine]
19 | 6.00 to 7.00 | C[C@@H]1C[C@@H](Nc2nc(-c3ccnc(Nc4nc(F)ccc4F)c3)nc3cncc(C4CC4)c23)CCN1 (racemic) [Example 226, (±)-{5-Cyclopropyl-2-[2-(3,6-difluoro-pyridin-2-ylamino)-pyridin-4-yl]-pyrido[3,4-d]pyrimidin-4-yl}-((2,4-trans)-2-methyl-piperidin-4-yl)-amine]
20 | > 7.00 | CC1(C)CNCC[C@@H]1Nc1nc(-c2ccnc(Nc3nc4ccccn4n3)c2)nc2cncc(C3CCC3)c12 [Example 275, {5-Cyclobutyl-2-[2-([1,2,4]triazolo[1,5-a]pyridin-2-ylamino)-pyridin-4-yl]-pyrido[3,4-d]pyrimidin-4-yl}-((S)-3,3-dimethyl-piperidin-4-yl)-amine]
21 | > 7.00 | CC1(C)CNCC[C@@H]1Nc1nc(-c2ccnc3[nH]c(-c4cc(F)ccc4F)cc23)nc2cncc(C3CC3)c12 [Example 361, {5-Cyclopropyl-2-[2-(2,5-difluoro-phenyl)-1H-pyrrolo[2,3-b]pyridin-4-yl]-pyrido[3,4-d]pyrimidin-4-yl}-((S)-3,3-dimethyl-piperidin-4-yl)-amine]
22 | > 7.00 | O[C@@H]1CNCC[C@H]1Nc1nc(-c2ccnc3[nH]c4ccccc4c23)nc2cncc(C3CCC3)c12 (racemic) [Example 345, rac-(3R,4R)-4-[5-Cyclobutyl-2-(9H-pyrido[2,3-b]indol-4-yl)-pyrido[3,4-d]pyrimidin-4-ylamino]-piperidin-3-ol]
23 | > 7.00 | CN(c1nc(-c2ccnc(Nc3ncn(Cc4ccccc4)n3)c2)nc2cncc(C3CC3)c12)C1CCNCC1(C)C (racemic) [Example 238, rac-{2-[2-(1-Benzyl-1H-1,2,4-triazol-3-ylamino)-pyridin-4-yl]-5-cyclopropyl-pyrido[3,4-d]pyrimidin-4-yl}-(3,3-dimethyl-piperidin-4-yl)-methyl-amine]
24 | > 7.00 | Cc1cnc(F)c(-c2cc3c(-c4nc(N[C@H]5CCNCC5(C)C)c5c(C6CC6)cncc5n4)ccnc3[nH]2)c1 [Example 364, {5-Cyclopropyl-2-[2-(2-fluoro-5-methyl-pyridin-3-yl)-1H-pyrrolo[2,3-b]pyridin-4-yl]-pyrido[3,4-d]pyrimidin-4-yl}-((S)-3,3-dimethyl-piperidin-4-yl)-amine]
25 | > 7.00 | CC1(C)CNCC[C@@H]1Nc1nc(-c2ccnc3[nH]c(C(F)(F)F)cc23)nc2cncc(C3CC3)c12 [Example 227, [5-Cyclopropyl-2-(2-trifluoromethyl-1H-pyrrolo[2,3-b]pyridin-4-yl)-pyrido[3,4-d]pyrimidin-4-yl]-((S)-3,3-dimethyl-piperidin-4-yl)-amine]
